Data from patent publication US20230277543A1, “COMPOSITIONS AND METHODS FOR TREATING DISEASES ASSOCIATED WITH ELEVATED ARGININE VASOPRESSIN LEVELS” (The United States Government As Represented By The …, priority 2022, published 2023).

Assays:
AVP gene = experiment: mRNA expression of AVP in primary cultures of rat hypothalamic cells; type: cell-based
Description: Alternatively, the observed in vivo effect of ticagrelor in mice can be the due to a ticagrelor metabolite such as AR-C124910XX or AR-C133913XX, which may bind to hypothalamic cells at a site other than P2Y12 receptor and exert inhibitory effect on the production of AVP. […] Based on this observation on cultured hypothalamic cells and the unequivocal data obtained from the primary cultures of rat inner medullary collecting duct cells, the observed in vivo effect of ticagrelor on decreased AVP production is mediated by the action of one or both metabolites of ticagrelor (AR-C124910XX or AR-C133913XX).

[1] = major metabolite of ticagrelor; cited from earlier work
rodent models of ADPKD = conditions: by reducing cAMP production in the kidney; cited from earlier work
rats = conditions: administration to rats
Description: The blockade of P2Y12 receptor by PSB-0739 on AVP gene expression in cultured rat hypothalamic cells was studied.

mice = experiment: urinary concentrating ability and AVP production in mice; type: in vivo; conditions: for urinary excretion of AVP: ticagrelor effect dose-dependent
Description: The effect of prasugrel on urinary concentration ability in mice was also tested and the same findings as clopidogrel were observed.
Both clopidogrel bisulfate and prasugrel belong to thienopyridine group of drugs, and thus both are prodrugs that need to be metabolized in the liver releasing their active metabolites that block the platelet P2Y12 receptor.

[2] = test system: rat inner medullary collecting duct cells; experiment: dDAVP-induced AQP2/AQP3 mRNA expression and cAMP production in primary cultures of rat inner medullary collecting duct cells; type: cell-based
Description: In sum, ticagrelor binds to P2Y12 receptor in medullary collecting duct cells and enhances the effect on dDAVP on the mRNA expression of AQP2 and AQP3 water channels and cAMP production. Thus, the observed decreased urinary concentration in ticagrelor-treated mice was not because of the effect of ticagrelor on renal medullary collecting duct.

CYP3A4 = CYP3A4 (Homo sapiens, UniProt P08684); conditions: cited from earlier work
vasopressin V2 receptor = vasopressin V2 receptor (Homo sapiens, UniProt P30518); conditions: chronic blockade of vasopressin V2 receptor; cited from earlier work
patients = conditions: in a vast majority of patients; cited from earlier work

Sequence of vasopressin V2 receptor (P30518 whole entry, species assumed): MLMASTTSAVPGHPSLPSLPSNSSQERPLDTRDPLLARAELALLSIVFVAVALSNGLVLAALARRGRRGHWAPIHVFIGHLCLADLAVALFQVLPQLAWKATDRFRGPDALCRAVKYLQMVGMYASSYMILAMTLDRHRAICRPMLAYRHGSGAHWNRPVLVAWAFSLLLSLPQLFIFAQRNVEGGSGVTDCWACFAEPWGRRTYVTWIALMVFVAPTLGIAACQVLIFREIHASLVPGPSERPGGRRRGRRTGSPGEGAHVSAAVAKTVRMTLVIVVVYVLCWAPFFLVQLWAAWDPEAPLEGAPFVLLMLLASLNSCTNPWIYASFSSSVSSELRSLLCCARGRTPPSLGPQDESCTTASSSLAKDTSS
Sequence of CYP3A4 (P08684 whole entry): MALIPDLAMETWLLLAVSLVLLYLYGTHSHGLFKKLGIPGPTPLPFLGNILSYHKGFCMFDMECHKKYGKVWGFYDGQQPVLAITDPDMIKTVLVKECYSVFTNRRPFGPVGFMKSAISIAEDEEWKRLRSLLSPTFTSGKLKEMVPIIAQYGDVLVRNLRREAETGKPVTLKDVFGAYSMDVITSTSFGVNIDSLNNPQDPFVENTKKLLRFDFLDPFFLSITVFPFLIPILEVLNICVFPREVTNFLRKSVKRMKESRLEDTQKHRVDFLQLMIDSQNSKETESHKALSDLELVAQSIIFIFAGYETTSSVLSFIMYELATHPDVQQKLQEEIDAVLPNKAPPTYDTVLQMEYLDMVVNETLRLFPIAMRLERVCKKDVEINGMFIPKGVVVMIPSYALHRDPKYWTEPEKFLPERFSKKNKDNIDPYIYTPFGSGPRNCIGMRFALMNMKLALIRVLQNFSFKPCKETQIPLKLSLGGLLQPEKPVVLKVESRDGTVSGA

Nc1ncnc2c1ncn2[C@@H]1O[C@H](COP(=O)(O)OP(=O)(O)O)[C@@H](O)[C@H]1O [ADP]
effect of PSB-0739 on AVP gene expression (AVP gene; cultured rat hypothalamic cells, combination with PSB-0739, 24 hours): blocked

CCCSc1nc(N[C@@H]2C[C@H]2c2ccc(F)c(F)c2)c2nnn([C@@H]3C[C@H](O)[C@@H](O)[C@H]3O)c2n1 [AR-C124910XX]
where the metabolite is found [1]: mostly in plasma and feces

CCCSc1nc(N)c2nnn([C@@H]3C[C@H](OCCO)[C@@H](O)[C@H]3O)c2n1 [AR-C133913XX]
where the metabolite is found [1]: urine and feces

Cc1ccccc1C(=O)Nc1ccc(C(=O)N2CCCC(N(C)C)c3ccccc32)cc1 (centres unmarked) [OPC-31260]
cystogenesis (rodent models of ADPKD): consistently inhibited

Nc1c(S(=O)(=O)O)cc(Nc2ccc(Nc3ccccc3)c(S(=O)(=O)O)c2)c2c1C(=O)c1ccccc1C2=O [PSB-0739]
mRNA expression of the AVP gene (AVP gene; cultured rat hypothalamic cells, exposed for 24 hours, blockade of P2Y12 receptor): significantly increased

COC(=O)[C@H](c1ccccc1Cl)N1CCc2sccc2C1 [clopidogrel]
AVP production (rats): increase

CC(=O)Oc1cc2c(s1)CCN(C(C(=O)C1CC1)c1ccccc1F)C2 (centres unmarked) [prasugrel]
protein abundance of AQP2 in the kidney medulla (mice; administered to mice): significantly increased | urine concentrating ability (mice; administered to mice): significantly increased | urinary excretion of AVP (mice; administered to mice): significantly increased

CCCSc1nc(N[C@@H]2C[C@H]2c2ccc(F)c(F)c2)c2nnn([C@@H]3C[C@H](OCCO)[C@@H](O)[C@H]3O)c2n1 [ticagrelor]
dDAVP-induced increase in cAMP production [2]: did not interfere | mRNA expression of dDAVP-induced AQP2 water channel protein [2]: concentration-dependent increases | mRNA expression of dDAVP-induced AQP3 water channel protein [2]: concentration-dependent increases | urine concentrating ability (mice; administered to mice): dilution of urine | urinary excretion of AVP (mice; administered to mice): decreased | urine flow (mice; mice, dose-dependent): increased | baseline mRNA expression of AVP (AVP gene; cultured hypothalamic cells): ~1.8 fold

Cc1ccccc1C(=O)Nc1ccc(C(=O)N2CCCC(O)c3cc(Cl)ccc32)c(C)c1 (centres unmarked) [tolvaptan]
cystogenesis (rodent models of ADPKD): consistently inhibited | metabolizing enzyme system (CYP3A4): metabolized by the CYP3A4 system | endogenous production of AVP (vasopressin V2 receptor): increased | adverse effects (patients): severe polyuria (loss of water in the urine), nocturia (frequent urination in the night), thirst and dry mouth
